Experimental data: US20130331331A1, “HEXAPEPTIDE WITH IMPROVED ACTIVITY IN THE REPAIR OF CELLULAR DNA OF DERMAL CELLS” (priority 2011, published 2013)
Non-standard residues stand in square brackets, D forms with d. Nle = CCCC[C@H](N)C(=O)O

Experiments:
Melanocytes = experiment: DNA damage as measured by cyclobutane pyrimidine dimers (CPD), flow cytometry; format: cell-based, human; settings: 48 h after 105 mJ/cm^2 UV
Description: Cyclobutane pyrimidine dimers (CPD), the major determinant of UV-induced DNA photoproducts, were detected using flow cytometry analysis.
Melanocytes were pretreated with 0 (control), 10 nM α-MSH or 1 nM NDP-MSH or 1 nM CUV9900 for 4 days prior to, and 2 days after exposure to 105 mJ/cm^2 UV, harvested 48 hours post irradiation, fixated with 70% ethanol, the DNA denatured with 1N HCl/0.2 mg/ml pepsin, then renaturated with sodium tetraborate. Melanocytes were blocked and incubated overnight at 4° C. with the anti-CPD antibody (diluted 1:500; TDM-2 clone), then with goat anti-mouse IgG Alexa Fluor 488 (Invitrogen, Carlsbad Calif.) for 1 hour, and finally resuspended in PBS containing RNase A and propidium iodide. Melanocytes were analyzed on a Coulter EPICS XL flow cytometer (Beckman Coulter) using a 488 nm argon ion laser A 525 band pass filter was used for the Alexa fluor 488 and a 620 band pass filter for the propidium iodide.

human melanocytes = experiment: DNA damage as measured by 8-oxo-dG immunofluorescence; format: cell-based
Text: DNA damage of cultured melanocytes following UV irradiation leads to consistent levels of photoproducts such as 8-oxo-dG. It is well established in the art (dermal carcinogenesis) that 8-oxodG is a major form of UV-induced oxidative DNA damage, which results from the generation of reactive oxygen species (ROS). The induction of 8-oxodG by 8-oxo-dGTP can be inhibited by pyrophosphohydrolases (8-[…]) that convert it to 8-oxo-dGMP. […] Immunofluorescence was detected using a microscope with FITC filters. Data were expressed as the mean fluorescence intensity±S.E., determined using the densitometry values from 6-8 randomly obtained images, using the computer assisted program Alpha Inotech Imaging System and the AlphaEase FC StandAlone Software.

melanocytic strain 1505b = experiment: UV-induced generation of hydrogen peroxide (luminol), strain 1505b; format: cell-based, human; settings: 1 nM
Text: With reference to FIGS. 10 and 11, melanocytes were irradiated with a bank of FS 20 lamps, with 75% emission in the UVB, and 25% emission in the UVA spectra, with peak emission at 313 nm wavelength. Any emission of UVC rays from the UV source (FS 20 lamps) was blocked by Kodacel filter. Prior to irradiation, the culture medium was replaced by PBS, which was removed after UV exposure, and fresh medium added.
Melanocytes were irradiated with 105 mJ/cm^2 UV, and treated immediately while in PBS with 0, 1 nM α-MSH or 1 nM CUV9900. Generation of hydrogen peroxide, representative of reactive oxygen species (ROS), was determined by measuring the luminescence of luminol at 0, 30, and 45 min after UV exposure. Triplicate dishes were included in each group, and duplicate samples from each dish were used for measurement of hydrogen peroxide at each time point. Each data point represents the mean of 6 determinations/group±S.E.
In the melanocytic strain 1505b of FIG. 10 and melanocytic strain 103c of FIG. 11, hydrogen peroxide generation was assessed at 0, 30 and 45 minutes after UV irradiation.

melanocyte strain 102b = experiment: Tyrosinase activity dose-response, strain 102b; format: cell-based, human; settings: subnanomolar concentrations
Description: Cell numbers as well as tyrosinase activity were then determined. Tyrosinase activity was calculated first at activity/10^6 cells, and then as % of control. […] The conditioned medium from each dish was collected to be assayed for tyrosinase activity, and the cell numbers were determined using a Coulter Counter. Triplicate dishes were included in each group, and duplicate samples from each dish were assayed for tyrosinase activity.

[1] = test system: melanocytic strains 1563c and 102b; experiment: Ultrastructural visualization of DOPA-stained HM (electron microscopy); format: cell-based, human; settings: 0.1 nM or 1 nM CUV9900, 1 nM MSH
Description: With reference to FIGS. 14 and 15, two melanocytic strains, a lightly pigmented strain 1563c of FIG. 14 and strain 102b of FIG. 15 were plated in 4-well chamber slides and treated […] with either 0.1 nM or 1 nM CUV9900 or 1 nM MSH for a total of 6 days. Cells were processed for electron microscopy in the presence or absence of histochemical reaction with DOPA. Microtome sections were analyzed in a JEOL JEM-1230 transmission electron microscope and photomicrographs (15,000×) of the perinuclear area and dendrites were taken for each experimental group.

melanocytes strain 1513c = experiment: cAMP levels, radioimmunoassay, strain 1513c; format: cell-based, human; settings: 45 min, 0.1 mM IBMX
Description: Dose-response experiments were carried out on three melanocytic strains, namely strains 1513c, 1505b and 105c melanocytes were treated with 1 pM-10 nM CUV9900 or NDP-MSH, or with 0.1-10 nM MSH for 45 minutes in the presence of 0.1 mM isobutyl methylxanthine (IBMX). The results obtained from strain 1513c are shown in FIG. 3, the results obtained from strain 1505b are shown in FIG. 5a and the results obtained from strain 105c are shown in FIG. 5b. The strains 1505b and 1513c were obtained from the same human adult while the strain 105c was obtained from another human adult. Cyclic AMP is the second messenger for the melanocortin-1 receptor, and assessment is usually performed indicating cellular activity reflective of melanogenesis. Cyclic AMP levels were determined using ^125I-labeled radioimmunoassay kit (Perkin Elmer, Waltham, Mass.), in human melanocytes that were treated with 0 (control), 0.1-10.0 nM α-MSH, or 0.001-10 nM NDP-MSH or 0.001-10.0 nM CUV 9900 for […]. in the presence of 0.1 mM IBMX, a phosphodiesterase inhibitor to prevent cAMP degradation. Triplicate wells were included in each group, and duplicate samples from each well were assayed for cAMP levels. Each data point is the mean percent of control of 6 determinations/group±S.E.

“Ac-Nle-Glu His-D-Phe-Arg-Trp-NH2 (Ac-[Nle]EH[dF]RW-NH2; SMILES CCCC[C@H](NC(C)=O)C(=O)N[C@@H](CCC(=O)O)C(=O)N[C@@H](Cc1c[nH]cn1)C(=O)N[C@H](Cc1ccccc1)C(=O)N[C@@H](CCCNC(=N)N)C(=O)N[C@@H](Cc1c[nH]c2ccccc12)C(N)=O) [CUV9900, hexapeptide alpha-MSH analogue]” was tested, and the “CPD cellular DNA damage, comparison in words” value (Melanocytes) was “less CPD cellular DNA damage in comparison with and NDP-MSH and slightly higher values than alpha-MSH”, the “less 8-oxo-dG cellular DNA damage in comparison with alpha-MSH” value (human melanocytes) was 33% and the “hydrogen peroxide generation, comparison” value (melanocytic strain 1505b; 45 minutes after irradiation) was “lower hydrogen peroxide generation in comparison with both NDP-MSH and MSH”. The “UV-induced hydrogen peroxide generation” value (melanocytic strain 1505b; strain 1505b, 105 mJ/cm^2 UV, 0, 30 and 45 minutes after irradiation) was “significant reduction of UV-induced hydrogen peroxide generation”, the “stimulation of tyrosinase activity, comparison” value (melanocyte strain 102b) was “greater stimulation of tyrosinase activity than NDP-MSH” and the “melanosomes and DOPA reactivity by electron microscopy” value [1] was “increased mature (stage IV) melanosomes in the perinuclear area and more so in dendrites”. The “cAMP, potency comparison” value (melanocytes strain 1513c; 0.1 nM) was “more potent than NDP-MSH” and the “maximal level of cAMP, comparison” value (melanocytes strain 1513c; 10 nM) was “higher maximal level of cAMP than MSH”.
